Substitutions are numbered along the chain they refer to.
What was measured:
[1] = target: T1, rat COMT (rCOMT), catechol-O-methyltransferase (Rattus norvegicus, UniProt P22734); assay: co-crystal structures ([…]), semi-holo, and ([…]), with tolcapone and Mg2+; format: binding
T1 construct: soluble N-terminally truncated form, lacks the N-terminal 43 residues
T1 sequence (P22734 44-264): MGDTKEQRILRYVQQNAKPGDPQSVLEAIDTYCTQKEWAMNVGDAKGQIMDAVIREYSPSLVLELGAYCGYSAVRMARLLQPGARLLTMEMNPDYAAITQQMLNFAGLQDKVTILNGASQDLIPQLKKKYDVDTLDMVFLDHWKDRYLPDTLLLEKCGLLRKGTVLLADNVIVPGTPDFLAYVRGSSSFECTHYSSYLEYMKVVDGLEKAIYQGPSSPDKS

[2] = target: T2, humanized rat COMT (hrCOMT), catechol-O-methyltransferase (Rattus norvegicus, UniProt P22734, M134I/Y138C); assay: co-crystal structure ([…]) at […] Å; IC50 from activity-based high-throughput screen; format: biochemical
T2 sequence (P22734 44-264 M134I/Y138C): T1 sequence (P22734 44-264) with M91I, Y95C

Row | IC50 [2] | SMILES | co-crystal structures (7), semi-holo, and (8), with tolcapone and Mg2+ [1]
1 |  | Nc1ncnc2c1ncn2[C@@H]1O[C@H](C[C@@H](N)CC[C@H](N)C(=O)O)[C@@H](O)[C@H]1O [sinefungin] | Co-crystal structure with the SAM analogue sinefungin. Semi-holo form.
2 | 4.4 µM | N=C(N)c1ccc(NC(=O)Nc2cccc(CN)c2)cc1 [4-[3-(3-aminomethylphenyl)-ureido]-benzamidine] | 

From paper PMC4118827, “Mapping the conformational space accessible to catechol-O-methyltransferase” (Acta Crystallographica Section D: Biological Crystallography, 2014)
